Measurements reported in BigSolDB 2.1.

O=[N+]([O-])c1cn[nH]c1
solubility (mole fraction)
Conditions | in acetonitrile | in ethanol | in methanol | in water
278.15 K | 0.0478 | 0.037 | 0.0491 | 0.00209
280.65 K | 0.0491 | 0.0389 | 0.0502 | 0.00218
283.15 K | 0.0508 | 0.0405 | 0.0517 | 0.00231
285.65 K | 0.0524 | 0.0429 | 0.0532 | 0.00248
288.15 K | 0.0541 | 0.045 | 0.0558 | 0.00268
290.65 K | 0.0558 | 0.047 | 0.0583 | 0.00286
293.15 K | 0.0576 | 0.0494 | 0.061 | 0.00315
295.65 K | 0.0595 | 0.0521 | 0.0638 | 0.00339
298.15 K | 0.0623 | 0.0549 | 0.067 | 0.0037
300.65 K | 0.0648 | 0.0582 | 0.0698 | 0.00401
303.15 K | 0.0674 | 0.0614 | 0.073 | 0.0044
305.65 K | 0.0703 | 0.0647 | 0.0758 | 0.00477
308.15 K | 0.0731 | 0.0677 | 0.0789 | 0.00526
310.65 K | 0.0758 | 0.0714 | 0.0817 | 0.00586
313.15 K | 0.079 | 0.0747 | 0.0848 | 0.00653
315.65 K | 0.0828 | 0.0784 | 0.0885 | 0.00724
318.15 K | 0.0872 | 0.0828 | 0.092 | 0.00802
